From the supplement of paper PMC11451515

How the values were obtained:
Settings in all cases: 48 h
SEM cells [1] = assay: cell viability relative to DMSO control; higher = less cytotoxic
Summary of the method: (§1)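 NOMO1 or SEM (500 cells/well) or P12-Ichikawa (1000 cells/well) leukemia cells were adapted for at least four passages in each medium. They were seeded in 1536-well plates (5 μl) and pin-dosed with library compounds in DMSO over an 11-point threefold series, 47 μM to 0.79 nM. CellTiter-Glo One luminescence was read after 48 h at 37°C. Viability is the per-plate percentage relative to DMSO wells, with cell-free wells as background.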

NOMO1 [2] = assay: AUC of viability dose-response curve (% viability x log10 dose units); higher = less sensitive
Summary of the method: (§2)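 Leukemia cells adapted to each medium were seeded at 500 or 1000 cells/well in 1536-well plates and dosed with library compounds in DMSO at 11 threefold doses from 47 μM to 0.79 nM for 48 h at 37°C. CellTiter-Glo One luminescence was normalised per plate to DMSO and cell-free wells, then fitted with a four-parameter log-logistic model over log10 doses. Area under the curve was taken from this fit by the trapezoidal rule, with curves above full viability scaled and curves failing quality control removed.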

P12-Ichikawa [3] = assay: as above
Summary of the method: as §2

SEM cells [4] = assay: as above
Summary of the method: as §2

NOMO1 [5] = assay: cell viability relative to DMSO control; higher = less cytotoxic
Summary of the method: as §1

P12-Ichikawa [6] = assay: as above
Summary of the method: as §1

Cc1c(CN2CCN([S+](C)(=O)[O-])CC2)sc2c(N3CCOCC3)nc(-c3cnc(N)nc3)nc12
SEM cells [1], RPMI 5 mM glucose + 10% dialyzed FBS
Settings	cell viability [%]
0.000781 µM	118
0.00234 µM	134
0.00702 µM	122
0.0211 µM	105
0.0632 µM	87.3
0.19 µM	86.6
0.569 µM	98.8
1.71 µM	57.9
5.12 µM	50.8
15.4 µM	50.6
46.1 µM	44

AUC of viability dose-response curve
Settings	NOMO1 [2]	P12-Ichikawa [3]	SEM cells [4]
HPLM + 10% dialyzed FBS	305	371	287
RPMI 5 mM glucose + 10% FBS	350	336	304
RPMI 5 mM glucose + 10% dialyzed FBS	316	332	328

CCn1c(=O)c2c(nc(/C=C/c3ccc(OC)c(OC)c3)n2C)n(CC)c1=O
AUC of viability dose-response curve
Settings	NOMO1 [2]	P12-Ichikawa [3]	SEM cells [4]
HPLM + 10% dialyzed FBS	425	467	470
RPMI 5 mM glucose + 10% FBS	424	451	463
RPMI 5 mM glucose + 10% dialyzed FBS	436	464	472

CC1(C)CC\C2=C(/O1)C3=C(C=CC=C3)C(=O)C2=O
cell viability [%]
Settings	NOMO1 [5]	P12-Ichikawa [6]	SEM cells [1]
HPLM + 10% dialyzed FBS, 0.000781 µM	123	112	103
HPLM + 10% dialyzed FBS, 0.00234 µM	112	118	117
HPLM + 10% dialyzed FBS, 0.00702 µM	113	114	86.2
HPLM + 10% dialyzed FBS, 0.0211 µM	101	116	112
HPLM + 10% dialyzed FBS, 0.0632 µM	112	106	113
HPLM + 10% dialyzed FBS, 0.19 µM	104	111	110
HPLM + 10% dialyzed FBS, 0.569 µM	103	110	98.8
HPLM + 10% dialyzed FBS, 1.71 µM	118	102	94.7
HPLM + 10% dialyzed FBS, 5.12 µM	99	104	95
HPLM + 10% dialyzed FBS, 15.4 µM	98.4	99.4	78.9
HPLM + 10% dialyzed FBS, 46.1 µM	4.14	2.4	4.79
RPMI 5 mM glucose + 10% FBS, 0.000781 µM	113	113	127
RPMI 5 mM glucose + 10% FBS, 0.00234 µM	104	106	115
RPMI 5 mM glucose + 10% FBS, 0.00702 µM	115	94.9	94.1
RPMI 5 mM glucose + 10% FBS, 0.0211 µM	103	102	124
RPMI 5 mM glucose + 10% FBS, 0.0632 µM	108	112	129
RPMI 5 mM glucose + 10% FBS, 0.19 µM	111	109	117
RPMI 5 mM glucose + 10% FBS, 0.569 µM	90.9	105	117
RPMI 5 mM glucose + 10% FBS, 1.71 µM	107	98.3	102
RPMI 5 mM glucose + 10% FBS, 5.12 µM	108	105	108
RPMI 5 mM glucose + 10% FBS, 15.4 µM	88.2	90.5	76.3
RPMI 5 mM glucose + 10% FBS, 46.1 µM	5.12	0.954	3.64
RPMI 5 mM glucose + 10% dialyzed FBS, 0.000781 µM	109	107	105
RPMI 5 mM glucose + 10% dialyzed FBS, 0.00234 µM	97.4	119	121
RPMI 5 mM glucose + 10% dialyzed FBS, 0.00702 µM	109	100	95.4
RPMI 5 mM glucose + 10% dialyzed FBS, 0.0211 µM	113	101	102
RPMI 5 mM glucose + 10% dialyzed FBS, 0.0632 µM	103	108	114
RPMI 5 mM glucose + 10% dialyzed FBS, 0.19 µM	102	96.6	119
RPMI 5 mM glucose + 10% dialyzed FBS, 0.569 µM	101	109	100
RPMI 5 mM glucose + 10% dialyzed FBS, 1.71 µM	99.9	89.2	84.5
RPMI 5 mM glucose + 10% dialyzed FBS, 5.12 µM	100	102	72.9
RPMI 5 mM glucose + 10% dialyzed FBS, 15.4 µM	96.3	94.9	55.8
RPMI 5 mM glucose + 10% dialyzed FBS, 46.1 µM	6.57	1.41	2.69

AUC of viability dose-response curve
Settings	NOMO1 [2]	P12-Ichikawa [3]	SEM cells [4]
HPLM + 10% dialyzed FBS	449	449	437
RPMI 5 mM glucose + 10% FBS	446	447	436
RPMI 5 mM glucose + 10% dialyzed FBS	451	450	401
